# Test results: publication PMC8835363, “Arachidin-1, a Prenylated Stilbenoid from Peanut, Induces Apoptosis in Triple-Negative Breast Cancer Cells” (International Journal of Molecular Sciences, 2022)
# Assays:
# MDA-MB-231 cells = assay: Annexin V-FITC/PI apoptosis assay (flow cytometry); type: cell-based, human; settings: mean ± SD
# Protocol: (§1) Cells (10^6 cells/well) were seeded onto 6-well plates. After 24 h, the cells were incubated with A-1 (0.1 and 1 µM) for 24, 48, and 72 h. The control groups were incubated with 0.01% DMSO (ATCC; Manassas, VA, USA) for every hour. Then, cells were collected and washed twice with cold 1X PBS and stained with both annexin V-FITC and PI for 5 min at room temperature. The cells were analyzed by flow cytometry using BD FACS Aria (BD Biosciences, Franklin Lakes, NJ, USA). The positive controls (annexin negative/PI negative; annexin negative/PI positive; and annexin positive/PI negative) were used to set up compensation and set quadrants. The early apoptotic cells were measured in the quadrant of annexin V positive/PI negative and late apoptotic/necrotic cells were measured in the quadrant of annexin positive/PI positive. Data were analyzed with FlowJo™ v10.8 Software (BD Life Sciences; Ashland, OR, USA). All experiments were performed in triplicates.
# MDA-MB-436 cells = assay: Annexin V-FITC/PI apoptosis assay (flow cytometry); type: cell-based, human; settings: mean ± SD
# Protocol: as §1
# [1] = system: caspase-3/7 activity in MDA-MB-231 cells; assay: Apo-ONE Homogenous Caspase-3/7 Assay; type: cell-based, human; settings: 0.1, 1, 10 µM, 48 h
# Protocol: (§2) The Apo-ONE® Homogenous Caspase-3/7 Assay (Promega, Madison, WI, USA) was used for measuring caspase-3/7 activity. Cells (10,000 cells/well) were seeded in 96-well plates. After 24 h, the cells were treated with A-1, A-3, and RES, and incubated for an additional 48 h at 37 °C, with a humidified atmosphere of 5% CO2 (however, MDA-MB-436 cells were incubated in 0% CO2). Control groups were cells treated with 0.01% DMSO (ATCC; Manassas, VA, USA). According to the manufacturer, after 48 h of treatment, the caspase reagent was added to the cells and the plates were incubated at room temperature in the dark for 1 h. Then, fluorescence was measured every hour for a total of 4 h using the Cytation^TM 5 (BioTek; Winooski, VT, USA) plate reader at an excitation wavelength of 485 ± 20 nm and emission of 530 ± 25 nm.
# [2] = system: caspase-3/7 activity in MDA-MB-436 cells; assay: Apo-ONE Homogenous Caspase-3/7 Assay; type: cell-based, human; settings: 0.1, 1, 10 µM, 48 h
# Protocol: as §2
# [3] = system: caspase-8, 9, PARP, and survivin proteins in MDA-MB-231 cells; assay: Western blot of caspase-8, caspase-9, PARP and survivin; type: cell-based, human; settings: 0.1 and 1 µM, 24 h
# Protocol: (§3) MDA-MB-231 and MDA-MB-436 cells (10^7 and 5 × 10^6 cells/3 mL medium, respectively) were seeded in a 6-well cell culture plate. After 24 h, the cells were treated with A-1 (0.1 µM and 1 µM) for 24 h. Cells treated with 0.01% DMSO (ATCC; Manassas, VA, USA) were included as a control. Protein extracts were prepared using RIPA Lysis and Extraction Buffer plus Halt™ Protease Inhibitor Cocktail (Thermo Fisher Scientific; Waltham, MA, USA). The protein concentration was measured using the Bradford assay (Thermo Fisher Scientific; Waltham, MA, USA). Protein extracts (60 µg) with 5 µL of 2X Novex™ Tris-Glycine SDS Sample Buffer (Thermo Fisher Scientific; Waltham, MA, USA) and 1% dithiothreitol (DTT; Thermo Fisher Scientific; Waltham, MA, USA) were denatured and separated by electrophoresis using SDS-PAGE in 10% Tris-Glycine pre-cast gel (Novex™ WedgeWell™, Thermo Fisher Scientific; Waltham, MA, USA). The gel was run in 1X Novex™ Tris-Glycine SDS running buffer (Thermo Fisher Scientific; Waltham, MA, USA) at a constant 125 voltage for 90 min. The proteins were transferred into Trans-Blot Turbo Mini 0.2 µm PVDF membranes (Bio-Rad Laboratories; Hercules, CA, USA) using the Trans Blot Turbo System (Bio-Rad Laboratories; Hercules, CA, USA) at 1.3 amp and up to 25 volts for 7 min. After the membranes dried completely, they were incubated in 1X Tris Buffered Saline (TBS; Bio-Rad; Hercules, CA, USA) for 5 min at room temperature. Then, the membranes were blocked with 5% non-fat dry milk in 1X TBS containing 1% Tween 20 (TBST; Bio-Rad; Hercules, CA, USA) for 1 h at room temperature. The membranes were incubated with specific primary antibodies at 4 °C overnight. The primary antibodies and dilutions included rabbit anti-caspase-8 (D35G2) mAb (1:500; Cell Signaling Technology; Danvers, MA, USA), rabbit anti-PARP mAb (1:500; Cell Signaling Technology; Danvers, MA, USA), rabbit anti-human survivin polyclonal antibody (0.5 µg/mL; R&D Systems; Minneapolis, MN, USA), mouse anti-human caspase-9 mAb (1 µg/mL; R&D Systems; Minneapolis, MN, USA), mouse anti-vinculin antibody (2 µg/mL; R&D Systems; Minneapolis, MN, USA), and mouse anti-human GAPDH antibody (0.05 µg/mL; R&D Systems; Minneapolis, MN, USA). Afterwards, the membranes were incubated with HRP-conjugated goat anti-rabbit IgG secondary antibody (1:2000; Cell Signaling Technology; Danvers, MA, USA) and HRP-conjugated AffiniPure goat anti-mouse IgG secondary antibody (1:50,000; Jackson Immunoresearch Laboratories; West Grove, PA, USA) for 1 h at room temperature. The membranes were washed with 1X TBST and then incubated with SuperSignal™ West Pico PLUS Chemiluminescent Substrate (Thermo Fisher Scientific; Waltham, MA, USA). The membranes were scanned and analyzed using the Li-COR Odyssey® Fc Imaging System (LI-COR Biosciences; Lincoln, NE, USA).
# [4] = system: caspase-8, 9, PARP, and survivin proteins in MDA-MB-436 cells; assay: as above; type: cell-based, human; settings: 0.1 and 1 µM, 24 h
# Protocol: as §3
# [5] = system: human leukemia HL-60 cell line; parameters: method as in PMID 21067217; settings: 72 h treatment; cited from earlier work
# [6] = system: UDP-glucuronosyltransferases; settings: in vitro metabolism; cited from earlier work
structure (smiles),measurement,setting,value
"CC(C)/C=C/c1c(O)cc(/C=C/c2ccc(O)c(O)c2)cc1O [A-1, arachidin-1]",percentage of cells in early apoptosis,"MDA-MB-231 cells; 0.1 µM, 24 h",21.29 ± 1.94%
same,percentage of cells in early apoptosis,"MDA-MB-231 cells; 0.1 µM, 48 h",63.47 ± 0.90%
same,percentage of cells in early apoptosis,"MDA-MB-231 cells; 0.1 µM, 72 h",53.1 ± 2.50%
same,percentage of cells in early apoptosis,"MDA-MB-231 cells; 1 µM, 24 h",24.76 ± 1.65%
same,percentage of cells in early apoptosis,"MDA-MB-231 cells; 1 µM, 48 h",68.67 ± 0.76%
same,percentage of cells in early apoptosis,"MDA-MB-231 cells; 1 µM, 72 h",51.77 ± 2.37%
same,percentage of early apoptotic cells,"MDA-MB-436 cells; 0.1 µM, 24 h",35.76 ± 4.10%
same,percentage of early apoptotic cells,"MDA-MB-436 cells; 0.1 µM, 48 h",44.90 ± 0.89%
same,percentage of early apoptotic cells,"MDA-MB-436 cells; 0.1 µM, 72 h",45.73 ± 0.96%
same,percentage of early apoptotic cells,"MDA-MB-436 cells; 1 µM, 24 h",35.27 ± 3.78%
same,percentage of early apoptotic cells,"MDA-MB-436 cells; 1 µM, 48 h",46.11 ± 3.40%
same,percentage of early apoptotic cells,"MDA-MB-436 cells; 1 µM, 72 h",38.77 ± 2.59%
same,caspase-3/7 activity vs control,[1],significant increase of dose-dependent caspase-3/7 activities
same,caspase-3/7 activity vs control,[2],significant increase of dose-dependent caspase-3/7 activities
same,cleaved PARP level,[3],only slightly increased and not statistically significant
same,cleaved caspase-9 level,[3],only significantly increased in A-1 1 µM
same,full-length PARP protein level,[3],significantly decreased levels
same,full-length caspase-8 level,[3],no significant change
same,survivin expression,[3],downregulated
same,cleaved PARP level,[4],significantly increased
same,cleaved caspase-9 level,[4],significantly increased
same,full-length caspase-8 level,[4],no significant change
same,survivin expression,[4],downregulated
same,IC50,[5],4.2 µM
same,glucuronidated products compared to non-prenylated analogs piceatannol and RES,[6],lower glucuronidated products
